Data from paper PMC3314694, “Small Molecule Antagonists of the Wnt/Beta-Catenin Signaling Pathway Target Breast Tumor-Initiating Cells in a Her2/Neu Mouse Model of Breast Cancer” (PLoS ONE, 2012).

Columns and labels:
[1] = system: primary tumor cells (BTIC); assay: Ex vivo treatment of primary tumor cells and transplant into syngeneic mice; assay type: in vivo, mouse
Description: We incubated freshly isolated primary tumor cells under sphere forming conditions in presence of vehicle (DMSO) or PKF118–310 (1 µM or 2.5 µM concentrations). After 4 days the spheres were collected, dissociated and equal numbers (5,000) of viable PKF118–310- and vehicle-treated cells were injected sub-cutaneously into the syngeneic mice. Upon endpoint, when the tumor in any individual mouse reached 10% of its weight (∼6 weeks) all the animals were sacrificed and the tumors harvested.
(§1) Sphere and colony forming assays were completed as previously described. Dkk1 and Wnt3A were obtained from RnDSystems (Minneapolis, Minnesota). PKF118–310, PKF115–584 and CGP049090 were a gift from Novartis (Basel, Switzerland).

[2] = system: BTICs in tumors; assay: Secondary transplant of tumor cells harvested from treated mice; assay type: in vivo; details: 10,000 cells/mouse from treated mice
Description: The principal objective of our experiments was to learn whether inhibition of Wnt/β-catenin signaling targeted BTICs in tumors. […] We reasoned that if PKF118–310 selectively targeted BTICs in vivo, viable cells isolated from PKF118–310 treated tumor-bearng hosts would engraft and elicit tumor growth less efficiently relative to their vehicle-treated counterparts. To this end, we transplanted tumor cells by injecting them sub-cutaneously (n = 20, PKF118–310-treated; n = 20, vehicle-treated) between the shoulders of syngeneic mice (10,000 cells/mouse) and measured tumor latency in the PKF118–310-treated and vehicle-treated transplant cohorts. […]
Freshly isolated primary tumor (100,000) cells were suspended in 50% Matrigel (BD, Franklin Lakes, New Jersey), 45% phosphate buffered saline pH7.4 (PBS) and 5% fetal bovine serum (FBS) [Invitrogen, Carlsbad, California], and the cells were injected subcutaneously between the shoulders into syngeneic 6–8 week-old female mice (FVB/N strain). Mice were monitored by palpation weekly for the occurrence of tumors. […] Tumor volume was measured twice weekly. […] Viable tumor cells (assessed by TrypanBlue staining) from vehicle- and compound-treated mice were isolated as described above and 10,000 cells were transplanted subcutaneously into syngeneic mice (n = 20, treated; n = 20, untreated).

[3] = system: mammosphere-derived cells; assay: Sphere forming assay, mammosphere-derived cells; assay type: cell-based, mouse
Description: (§2) To determine whether Wnt/β-catenin signaling was required for BTIC and mammary epithelial stem and progenitor cell function in vitro, we examined the effect of agonists and antagonists of Wnt/β-catenin signaling on sphere formation, which when performed under appropriate conditions is thought to be an attribute of stem/progenitor cells and TICs, [38], [39], [40]. We seeded dispersed cells dissociated from mammospheres and tumorspheres into media containing either Dkk1 or Wnt3a at concentrations previously shown to be sufficient to inhibit or activate the Wnt/β-catenin signaling pathway, respectively, [42]. Dkk1 is a secreted protein inhibitor [43], and Wnt3A is a stimulatory ligand of Wnt/β-catenin signaling. […] We used the small molecule BIO to inhibit GSKβ, a negative regulator of Wnt/β-catenin signaling.
(§3) We similarly tested pharmacological agents, which target Wnt/β-catenin signaling (PKF118–310, PKF115–584, CGP049090), for their affect on sphere formation. These inhibitors are specific antagonists of Wnt/β-catenin signaling that interrupt the […] step in pathway activation, namely the interaction between β-catenin and Tcf/Lef transcription factors. We seeded freshly isolated primary tumor cells and primary mammary epithelial cells, as well as mammosphere- and tumorsphere-derived cells into medium containing various concentrations of the inhibitors.
(§4) The #3 and #4 mammary glands from virgin female FVB/N mice (6–8 weeks old) and mammary tumors were isolated as described previously, [56]. Mammospheres and tumorspheres were established from the bulk primary mammary epithelial and tumor cell population respectively as described previously. Serial passage of the mammospheres and tumorspheres was accomplished by mechanically dissociated the cells from spheres using titruation and reseeding the dispersed cells into fresh medium. Passage of the spheres was limited to 3–5 serial passages before the cells were harvested and RNA prepared. To induce a differentiation program in mammospheres in vitro, intact mammospheres were collected by centrifugation, the spheres were dissociated and the dispersed cells were plated at a density of 150,000 cells/ml on rat-tail collagen (Roche, Basel, Switzerland) coated 60 mm Petri dishes, [59]. The cells were incubated for a week before they were harvested and used to prepare cellular RNA for analyses.
as §1
(§5) The 50% inhibitory concentration (IC50) of compounds was calculated using GraphPad Prism5 software. X-axis values were X = Log(X) transformed and then fit with a dose-response curve. The DMSO vehicle control was included to aid IC50 calculation and was assigned a 1 nM concentration of the tested compound.

[4] = system: primary tumor cells; assay: Secondary sphere-forming assay (self-renewal), primary tumor cells; assay type: cell-based, mouse; details: 1 µM during 4-day primary sphere assay; secondary spheres in medium lacking inhibitor
Description: (§6) To learn whether the inhibitory compounds affected the self-renewal of sphere-forming cells, we investigated the capacity of cells exposed to the compounds to serially form spheres. In short, dispersed primary mammary epithelial cells and primary tumor cells were exposed to PKF118–310 during a 4-day primary sphere-forming assay. The spheres that formed were counted, the cells dissociated from the spheres and the dispersed cells plated to form secondary spheres in fresh medium lacking the inhibitors.

[5] = system: pre-established breast tumors; assay: In vivo compound administration to tumor-bearing mice; set-up: species or system mouse
Description: To determine whether PKF118–310 affected the growth of pre-established breast tumors and reduced BTIC frequency in vivo, we transplanted primary breast tumor cells into syngeneic mice and treated these hosts with PKF118–310 after the tumors had reached a volume of ∼1 cm^3. […] After treatment ceased the tumors in mice administered the vehicle were ∼3 fold larger than those in PKF118–310-treated mice (Fig. 4B, *p<0.05).
To uncover potential mechanisms whereby the compound halted tumor growth, we prepared sections from the tumors of both cohorts and stained them with Hematoxylin and Eosin (H&E). […] In some cases the cell-free areas contained material, characteristic of milk protein secretions. […] We also examined whether inhibition of tumor growth was accomplished by a reduction in cell proliferation and/or induction of apoptosis. We stained tumor sections for markers of proliferation (Ki67) and apoptosis (cleaved caspase-3 and TUNEL). We observed a significant decrease in the frequency of Ki67 positive tumor cell nuclei in the PKF118–310 treated tumor-bearing mice compared to their vehicle-treated counterparts (Fig. 4D&E). […] Tumors from PKF118–310 treated mice comprised approximately 3–4-fold fewer Ki67-positive cells than tumors from vehicle-treated mice. We similarly simultaneously stained the tumor sections with antibodies to a luminal lineage marker (CK8) and with those to each of two myoepithelial lineage markers (CK14 and alpha-smooth muscle actin [alpha-SMA). The vast majority of the cells in sections prepared from tumors of the vehicle-treated mice expressed only the luminal lineage marker in keeping with previous findings (data not shown). Tumor sections prepared from tumors of the mice administered PKF118–310 also only expressed the luminal lineage marker.
To learn whether administration of PKF118–310 to tumor-bearing mice inhibited Wnt/β-catenin signaling in tumors, we measured the abundance of Wnt/β-catenin target gene transcripts in the tumor cells.
Freshly isolated primary tumor (100,000) cells were suspended in 50% Matrigel (BD, Franklin Lakes, New Jersey), 45% phosphate buffered saline pH7.4 (PBS) and 5% fetal bovine serum (FBS) [Invitrogen, Carlsbad, California], and the cells were injected subcutaneously between the shoulders into syngeneic 6–8 week-old female mice (FVB/N strain). Mice were monitored by palpation weekly for the occurrence of tumors. When tumors reached roughly 1 cm^3, the mice were administered either the vehicle (0.1% DMSO) or PKF118–310 (0.85 mg/kg) dissolved in 0.1% DMSO by intra-tumoral injection for 5 consecutive days followed by a 2-day rest period before compound administration was repeated once. Tumor volume was measured twice weekly. At the end of the 12-day treatment cycle the mice were sacrificed and their tumors harvested for analysis. […] Viable tumor cells (assessed by TrypanBlue staining) from vehicle- and compound-treated mice were isolated as described above and 10,000 cells were transplanted subcutaneously into syngeneic mice (n = 20, treated; n = 20, untreated).
Paraformaldehyde fixed tumor fragments were embedded in paraffin, sectioned and stained with H&E. The tumor sections were de-paraffinized and rehydrated in ethanol (100-70% gradient) before immunofluorescent analysis. Antigen retrieval was performed in Antigen Unmasking Solution (Vector, Burlingame, California). Slides were blocked with 3% normal goat serum (Dako, Denmark) and incubated with primary antibodies for 2 hours at room temperature (Ki67, 1∶200 [ABCAM, Cambridge, Massachusetts]. Secondary antibodies (Invitrogen) were used at a 1∶200 dilution for 1 hour at room temperature.

[6] = system: primary mammary epithelial cells; assay: Sphere forming assay, primary mammary epithelial cells; assay type: cell-based, mouse
Description: as §3
The #3 and #4 mammary glands from virgin female FVB/N mice (6–8 weeks old) and mammary tumors were isolated as described previously, [56]. Mammospheres and tumorspheres were established from the bulk primary mammary epithelial and tumor cell population respectively as described previously. Serial passage of the mammospheres and tumorspheres was accomplished by mechanically dissociated the cells from spheres using titruation and reseeding the dispersed cells into fresh medium. Passage of the spheres was limited to 3–5 serial passages before the cells were harvested and RNA prepared. […]

[7] = system: primary tumor cells; assay: Sphere forming assay, primary tumor cells; assay type: cell-based, mouse; details: for IC50: primary tumor cells; for selectivity (IC50 MMS/IC50 TMS) for primary tumor cells over primary mammary epithelial cells: sphere forming assays
Description: as §3, §4, §1, §5

[8] = system: tumorsphere-derived cells; assay: Sphere forming assay, tumorsphere-derived cells; assay type: cell-based, mouse
Description: as §2, §3, §4, §1, §5

[9] = system: primary mammary epithelial cells; assay: Secondary sphere-forming assay (self-renewal), primary mammary epithelial cells; assay type: cell-based, mouse; details: 1 µM during 4-day primary sphere assay; secondary spheres in medium lacking inhibitor
Description: as §6

[10] = 0.85 mg/kg, qRT-PCR, versus vehicle

Molecule	IC50 [3] [µM]	IC50 [6] [µM]	IC50 [7] [µM]	selectivity (IC50 MMS/IC50 TMS) for primary tumor cells over primary mammary epithelial cells [7]	IC50 [8] [µM]	effect on sphere formation [3]	effect on sphere formation [8]	also measured
Cn1ncnc2c(=O)n(C)c(=O)nc1-2 [PKF118–310]	0.54	1.54	0.58	2–3 fold	0.94			tumor latency versus vehicle-treated cells ([1]; cells incubated with 1 µM for 4 days): longer latency; tumor size at endpoint, smaller than vehicle-treated ([1]; cells incubated with 1 µM for 4 days, 5,000 viable cells s.c.): approximately 50%; tumor mass at endpoint ([1]; cells incubated with 1 µM for 4 days, 5,000 viable cells s.c., ∼6 weeks, control 0.49 g): 0.26 g; tumor initiation after transplant ([1]; cells incubated with 2.5 µM for 4 days, 5,000 viable cells s.c., ∼6 weeks): failed to initiate tumor growth in any of the host mice; mice remaining tumor free ([2]; 12 week follow-up): 85%; mice forming tumor grafts ([2]; vehicle 20/20): 3 of 20; reduction of capacity to form secondary spheres relative to vehicle [4]: ~10 fold; effect on tumor growth ([5]; 0.85 mg/kg intra-tumoral, 12 days (5 on, 2 off, 5 on)): inhibited tumor growth; tumor regression during treatment ([5]; 0.85 mg/kg, 12 days): did not induce significant tumor regression; abundance of axin2 transcripts in tumors [5, 10]: significantly lower; abundance of cyclin D1 transcripts in tumors [5, 10]: significantly lower; tumor volume after treatment, vehicle larger than treated ([5]; 0.85 mg/kg, t = 12 days): ~3 fold; Ki67-positive cells, fewer than in vehicle tumors ([5]; 0.85 mg/kg, tumor sections): 3–4 fold; cleaved caspase-3 or TUNEL staining (apoptosis) in tumors ([5]; 0.85 mg/kg, tumor sections): did not observe any positive staining; secondary mammosphere formation relative to vehicle [9]: at the same frequency as the vehicle-treated mammary epithelial cells
O=C1Nc2cc(Br)ccc2/C1=C1/Nc2ccccc2/C1=N\O [BIO]						stimulated sphere formation	stimulated sphere formation	
PKF115–584	1.39	2.05	0.31	6–7 fold	1.34			
Wnt3A: stimulatory ligand of Wnt/β-catenin signaling, from RnDSystems (protein, UniProt P56704 19-352, looked up) Protein Wnt-3a: SYPIWWSLAVGPQYSSLGSQPILCASIPGLVPKQLRFCRNYVEIMPSVAEGIKIGIQECQHQFRGRRWNCTTVHDSLAIFGPVLDKATRESAFVHAIASAGVAFAVTRSCAEGTAAICGCSSRHQGSPGKGWKWGGCSEDIEFGGMVSREFADARENRPDARSAMNRHNNEAGRQAIASHMHLKCKCHGLSGSCEVKTCWWSQPDFRAIGDFLKDKYDSASEMVVEKHRESRGWVETLRPRYTYFKVPTERDLVYYEASPNFCEPNPETGSFGTRDRTCNVSSHGIDGCDLLCCGRGHNARAERRREKCRCVFHWCCYVSCQECTRVYDVHTCK						stimulated sphere formation	stimulated sphere formation	
Dkk1: secreted protein inhibitor of Wnt/β-catenin signaling, from RnDSystems (protein, UniProt O94907 32-266, looked up) Dickkopf-related protein 1: TLNSVLNSNAIKNLPPPLGGAAGHPGSAVSAAPGILYPGGNKYQTIDNYQPYPCAEDEECGTDEYCASPTRGGDAGVQICLACRKRRKRCMRHAMCCPGNYCKNGICVSSDQNHFRGEIEETITESFGNDHSTLDGYSRRTTLSSKMYHTKGQEGSVCLRSSDCASGLCCARHFWSKICKPVLKEGQVCTKHRRKGSHGLEIFQRCYCGEGLSCRIQKDHHQASNSSRLHTCQRH						reduced sphere formation	reduced sphere formation	
